# Assay results reported in article PMC9887600, “Screening for Cyclotides in Sri Lankan Medicinal Plants: Discovery, Characterization, and Bioactivity Screening of Cyclotides from Geophila repens” (Journal of Natural Products, 2022).
# Read-outs that look alike come from different tables or passages of the source. Where a SMILES comes first, the peptide text is derived from it. Bridges are numbered along the chain shown (N, C = ends).
# What was measured:
# [1] = tested on: Candida albicans (ATCC 90028); assay: Microdilution MIC assay, C. albicans; format: cell-based; settings: lowest concentration inhibiting 100% growth; Tris buffer, triplicate
# Excerpt: (§1) Cyclotides isolated from G. repens were subjected to a microdilution assay on 96-well plates to determine minimum inhibitory concentration (MIC values), according to a method devised to minimize the activity-inhibiting presence of rich growth media.[43] For these experiments, bacterial strains of E. coli, P. aeruginosa, and S. aureus and the fungal strain of C. albicans were used. The MIC was taken as the lowest concentration of a cyclotide where the visible growth of microbes was inhibited, i.e., 100% of cell death.
# (§2) The dried cyclotides were subjected to MIC determination[43] against Staphylococcus aureus (ATCC 29213), Escherichia coli (ATCC 25922), Pseudomonas aeruginosa (ATCC 27853), and Candida albicans (ATCC 90028). The cyclotides (stock concentration of 65 μM) were dissolved in Tris buffer for the assay, and a concentration gradient of the cyclotides was screened against a microbial suspension mixed in a 1:1 ratio in each well (50 μL:50 μL). Microorganisms were grown in 3% tryptic soy broth (TSB) at 37 °C overnight, after centrifuging at 2000 rpm for 6–7 min, and bacterial pellets were washed twice and dissolved with Tris buffer. The absorbance was measured at 600 nm, and the solution was diluted to a concentration of 1 × 10^6 bacteria/mL. Dilution series were prepared using a serial dilution method with cyclotides and Tris buffer. In each plate, 50 μL of microbial suspension (approximately 50 000 cells/well) was added and incubated for 5 h. After incubation, 5 μL of 20% TSB was added to each well. Each plate was incubated based on the growth cycle of the microbe for 6, 9, 10, and 12 h at 37 °C. The minimum concentration that inhibited 100% growth was recorded as the MIC value. Triplicate assays were carried out for each sample.
# [2] = tested on: Human Lymphoma Cell Line U-937 GTB; settings: read-out: cytotoxicity, IC50, lymphoma U937; FMCA, 72 h incubation
# Experimental: The cytotoxicity of the cyclotides was determined using the fluorometric microculture cytotoxicity assay, employing the U-937 a human lymphoma cell line. This assay is based on hydrolysis of the probe, fluorescein diacetate (FDA), by esterase in live cells containing an intact plasma membrane. The cyclotides were tested at a series of concentrations obtained by 2-fold dilutions.
# Cytotoxicity activities of the pure cyclotides were evaluated using a fluorometric microculture cytotoxicity assay (FMCA),[57] which is based on the monitoring of fluorescence arising from fluorescein that is produced as a result of fluorescein diacetate (FDA) hydrolysis by cells with intact cell membranes. Human lymphoma cells (U937) suspended in cell-growth medium were dispensed into the microtiter plate containing pure cyclotides. Each well was seeded with 200 μL of cell suspension, containing approximately 20 000 cells, to give a total volume of 200 μL/well. […] After 40 min of incubation at 37 °C the fluorescence was measured at 485 nm excitation and 538 nm emission. The fluorescence in each well is proportional to the number of living cells, and cytotoxicity activity of a fraction is inversely proportional to fluorescence intensity. […] The IC50 values were calculated from a sigmoidal dose–response curve with a variable slope to the percentage viability as a function of the peptide concentration (log 10).
# [3] = Liposome leakage (carboxyfluorescein release) membrane permeabilization assay; format: biochemical, E. coli; settings: carboxyfluorescein release at 45 min, Tris buffer pH 7.4, current study
# Experimental: Each marker represents the mean leakage in Tris buffer, pH 7.4, with standard deviations from three experiments done at individual peptide concentrations, i.e., with no cumulative additions.
# Liposomes were manufactured and their permeabilization was assayed as described previously.[48] Briefly, by dissolving an E. coli polar lipid extract in chloroform and evaporating the solvent under agitation, with a nitrogen gas flow, and then storing in vacuum, dry films were formed on the walls of a glass flask. Lipid films were resuspended in an aqueous solution of 100 mM 5(6)-carboxyfluorescein in 10 mM Tris (set to pH 7.4 at 37 °C). Suspensions were subjected to repeated extrusion through a 100 nm polycarbonate membrane in order to reduce multilamellar structures and polydispersity. Untrapped carboxyfluorescein was removed by gel filtration. Membrane permeability was measured by monitoring carboxyfluorescein efflux from the liposomes to the external low-concentration environment, resulting in loss of self-quenching and an increased fluorescence signal. […] The EC50 values are calculated from a sigmoidal dose–response curve with a variable slope to the leakage percentage as a function of the peptide concentration (log 10).
# [4] = tested on: Staphylococcus aureus (ATCC 29213); assay: Microdilution MIC assay, S. aureus; format: cell-based; settings: lowest concentration inhibiting 100% growth; Tris buffer, triplicate
# Excerpt: as §1, §2
# [5] = tested on: Pseudomonas aeruginosa (ATCC 27853); assay: Microdilution MIC assay, P. aeruginosa; format: cell-based; settings: lowest concentration inhibiting 100% growth; Tris buffer, triplicate
# Excerpt: as §1, §2
# [6] = tested on: Escherichia coli (ATCC 25922); assay: Microdilution MIC assay, E. coli; format: cell-based; settings: for antimicrobial activity, MIC, Escherichia coli: lowest concentration inhibiting 100% growth, Tris buffer, triplicate
# Excerpt: as §1, §2
# [7] = tested on: standard microbial strains (E. coli, P. aeruginosa, S. aureus, C. albicans); assay: Microdilution MIC assay, whole panel of microorganisms; format: cell-based; settings: highest tested concentration 32.5 μM
# Excerpt: as §1
# as §2, with “In each plate, 50 μL of microbial suspension (approximately 50 000 cells/well) was added and incubated for 5 h. After incubation, 5 μL of 20% TSB was added to each well. Each plate was incubated based on the growth cycle of the microbe for 6, 9, 10, and 12 h at 37 °C. The minimum concentration that inhibited 100% growth was recorded as the MIC value. Triplicate assays were carried out for each sample.” left out
# [8] = tested on: Pseudomonas aeruginosa (ATCC 27853); set-up: method as in PMID 28669767; settings: previously reported; cited from earlier work
# [9] = tested on: Staphylococcus aureus (ATCC 29213); set-up: method as in PMID 28669767; settings: previously reported; cited from earlier work
# [10] = tested on: Escherichia coli (ATCC 25922); set-up: method as in PMID 28669767; settings: previously reported; cited from earlier work
# [11] = tested on: Human Lymphoma Cell Line U-937 GTB; set-up: method as in PMID 21491023; settings: previously reported; read-out: cytotoxicity, IC50, lymphoma U937; cited from earlier work
# [12] = previously; cited from earlier work
# [13] = tested on: Candida albicans (ATCC 90028); set-up: method as in PMID 28669767; settings: previously reported; cited from earlier work
# [14] = set-up: method as in PMID 28669767; settings: previous liposome leakage studies; cited from earlier work
Compound,"antimicrobial activity, MIC, Candida albicans [1] [µM]",IC50 [2] [nM],EC50 [3] [nM],"antimicrobial activity, MIC, Staphylococcus aureus [4] [µM]","antimicrobial activity, MIC, Pseudomonas aeruginosa [5] [µM]",fold more active than cyO2 against E. coli ([6]; gere 1 versus cyO2 MIC) [fold],"antimicrobial activity, MIC, Escherichia coli [6] [µM]",minimum inhibitory concentration against panel of microorganisms [7] [µM],"antimicrobial activity, MIC, Pseudomonas aeruginosa [8] [µM]","antimicrobial activity, MIC, Staphylococcus aureus [9] [µM]","antimicrobial activity, MIC, Escherichia coli [10] [µM]",IC50 [11] [nM],concentration at which active in radial diffusion assays [12] [mM],"antimicrobial activity, MIC, Candida albicans [13] [µM]",EC50 [14] [nM]
"CC[C@H](C)[C@@H]1NC(=O)[C@H](C)NC(=O)[C@H](CO)NC(=O)[C@H](CO)NC(=O)[C@H]([C@@H](C)CC)NC(=O)[C@@H]2CSSC[C@@H]3NC(=O)[C@H](C(C)C)NC(=O)[C@H](CCCCN)NC(=O)[C@H](CC(N)=O)NC(=O)[C@H](CCCCN)NC(=O)[C@@H]4CSSC[C@H](NC(=O)[C@H](CO)NC(=O)[C@H](CCC(=O)O)NC(=O)CNC(=O)[C@H](CSSC[C@H](NC(=O)CNC1=O)C(=O)N[C@@H](CO)C(=O)N4)NC(=O)[C@@H]1CCCN1C(=O)[C@H]([C@@H](C)CC)NC(=O)CNC(=O)[C@H](CC(N)=O)NC(=O)[C@H](CCCCN)NC(=O)[C@H](Cc1ccc(O)cc1)NC3=O)C(=O)N[C@@H](C(C)C)C(=O)N[C@@H](Cc1c[nH]c3ccccc13)C(=O)N[C@@H]([C@@H](C)CC)C(=O)N1CCC[C@H]1C(=O)N2 [gere 1] (cyclo(AIGCSCKNKVCYKNGIPCGESCVWIPCISS); disulfide 4-18, 6-22, 11-27)",>10,2000,70,>10,7.9,5,4.0,,,,,,,,
CC[C@H](C)[C@@H]1NC(=O)CNC(=O)[C@H](CC(N)=O)NC(=O)[C@H]([C@@H](C)CC)NC(=O)[C@H](Cc2ccc(O)cc2)NC(=O)[C@@H]2CSSC[C@@H]3NC(=O)CNC(=O)[C@H](Cc4ccccc4)NC(=O)[C@H](Cc4ccc(O)cc4)NC(=O)[C@H](C)NC(=O)[C@@H]4CSSC[C@H](NC(=O)[C@H](CO)NC(=O)[C@H](CSSC[C@H](NC(=O)[C@H](C)NC1=O)C(=O)NCC(=O)N[C@@H](CCC(=O)O)C(=O)N[C@@H](CO)C(=O)N4)NC(=O)CNC(=O)[C@@H]1CCCN1C(=O)[C@H]([C@@H](C)CC)NC(=O)[C@H](Cc1c[nH]c4ccccc14)NC3=O)C(=O)N[C@@H](CCCCN)C(=O)N[C@@H](CC(=O)O)C(=O)N[C@@H](CCCCN)C(=O)N[C@@H](C(C)C)C(=O)N2 [gere 2],>10,,,>10,>10,,>10,,,,,,,,
CC[C@H](C)[C@@H]1NC(=O)[C@@H]2CSSC[C@@H]3NC(=O)[C@H](C(C)C)NC(=O)[C@H](CCCCN)NC(=O)[C@H](CC(=O)O)NC(=O)[C@H](CCCCN)NC(=O)[C@@H]4CSSC[C@H](NC(=O)[C@H](CO)NC(=O)[C@H](CCC(=O)O)NC(=O)CNC(=O)[C@H](CSSC[C@H](NC(=O)CNC(=O)[C@H]([C@@H](C)CC)NC(=O)[C@H](C(C)C)NC(=O)[C@H]([C@@H](C)O)NC(=O)[C@H]([C@@H](C)O)NC1=O)C(=O)N[C@@H](CO)C(=O)N4)NC(=O)[C@@H]1CCCN1C(=O)[C@H](C(C)C)NC(=O)CNC(=O)[C@H](CC(N)=O)NC(=O)[C@H]([C@@H](C)O)NC(=O)[C@H](Cc1ccc(O)cc1)NC3=O)C(=O)N[C@@H](C(C)C)C(=O)N[C@@H](Cc1ccccc1)C(=O)N[C@@H]([C@@H](C)CC)C(=O)N1CCC[C@H]1C(=O)N2 [gere 3],>10,,,>10,>10,,>10,,,,,,,,
CC[C@H](C)[C@@H]1NC(=O)[C@H](Cc2ccccc2)NC(=O)[C@H](C(C)C)NC(=O)[C@@H]2CSSC[C@@H]3NC(=O)[C@H](CO)NC(=O)[C@@H]4CSSC[C@H](NC(=O)[C@@H]5CCCN5C(=O)[C@H](C(C)C)NC(=O)CNC(=O)[C@H](CC(N)=O)NC(=O)[C@H](CC(N)=O)NC(=O)[C@H](Cc5ccc(O)cc5)NC(=O)[C@H](CSSC[C@H](NC(=O)[C@@H]5CCCN5C1=O)C(=O)N[C@@H](Cc1ccccc1)C(=O)N[C@@H]([C@@H](C)O)C(=O)N[C@@H]([C@@H](C)O)C(=O)N[C@@H](C(C)C)C(=O)N[C@@H](C(C)C)C(=O)NCC(=O)N4)NC(=O)[C@H](C(C)C)NC(=O)[C@H](CCCCN)NC(=O)[C@H](CC(=O)O)NC(=O)[C@H](CCCCN)NC3=O)C(=O)NCC(=O)N[C@@H](CCC(=O)O)C(=O)N[C@@H](CO)C(=O)N2 [gere 4],>10,,,>10,>10,,>10,,,,,,,,
"CC[C@H](C)[C@@H]1NC(=O)[C@@H]2CCCN2C(=O)[C@H](Cc2c[nH]c3ccccc23)NC(=O)[C@H](CO)NC(=O)[C@@H]2CSSC[C@@H]3NC(=O)[C@H]([C@@H](C)O)NC(=O)[C@H](CCC(=O)O)NC(=O)CNC(=O)[C@@H]4CSSC[C@H](NC(=O)CNC(=O)[C@H](CCC(N)=O)NC(=O)[C@H]([C@@H](C)O)NC(=O)[C@H](Cc5ccc(O)cc5)NC(=O)[C@H](CSSC[C@H](NC1=O)C(=O)N[C@@H](CCCCN)C(=O)N[C@@H](CCCNC(=N)N)C(=O)N[C@@H](CC(N)=O)C(=O)NCC(=O)N[C@@H](CC(C)C)C(=O)N1CCC[C@H]1C(=O)N[C@@H](C(C)C)C(=O)N4)NC(=O)[C@H]([C@@H](C)O)NC(=O)CNC(=O)[C@H](CC(C)C)NC(=O)[C@H]([C@@H](C)O)NC3=O)C(=O)N[C@@H]([C@@H](C)O)C(=O)N2 [kB7, kalata B7] (cyclo(CGETCTLGTCYTQGCTCSWPICKRNGLPV); disulfide 1-15, 5-17, 10-22)",,10200,94,,,,,≥ 32.5,1.25,>10,>10,> 10000,2,>10,
"cycloviolacin O2 [cyO2, reference compound]",,,,,,,,,10,>10,>10,260 to 1800,,>10,76
